Test results taken from PubChem BioAssay AID200 (DTP/NCI, 2004).
Where “and” joins values, the source holds several entries; their conditions need not be identical. Equal entries are not always repeated. Inconclusive results and toxic doses are left out. The calls were made as follows: active = survival T/C of 150% or more; inactive = T/C below 125% in these data.

Test system: B6C3F1 mice, B16 melanoma ip, median survival T/C
Assay: NCI In Vivo Anticancer Drug Screen. Data for tumor model B16 Melanoma (intraperitoneal) in B6C3F1 mice
Conditions: endpoint: median survival time, higher = longer survival
How it was run: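 Readout: survival or tumor size in treated mice relative to vehicle controls (T/C). Model uses transplantable tumors grown in mice.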

[1] = dose: 25.0 mg/kg/injection, schedule: Q01DX009 (ip), vehicle: saline with Tween-80
[2] = dose: 50.0 mg/kg/injection, schedule: Q01DX009 (ip), vehicle: saline with Tween-80
[3] = dose: 100.0 mg/kg/injection, schedule: Q01DX009 (ip), vehicle: saline with Tween-80
[4] = dose: 50.0 mg/kg/injection, schedule: Q01DX009 (ip), vehicle: Klucel (hydroxypropylcellulose) (HPC)
[5] = dose: 200.0 mg/kg/injection, schedule: Q01DX009 (ip), vehicle: Klucel (hydroxypropylcellulose) (HPC)
[6] = dose: 12.5 mg/kg/injection, schedule: Q01DX009 (ip), vehicle: saline with Tween-80
[7] = dose: 50.0 mg/kg/injection, schedule: Q01DX009 (ip), vehicle: saline
[8] = dose: 100.0 mg/kg/injection, schedule: Q01DX009 (ip), vehicle: saline
[9] = dose: 200.0 mg/kg/injection, schedule: Q01DX009 (ip), vehicle: saline
[10] = dose: 100.0 mg/kg/injection, schedule: Q01DX009 (ip), vehicle: Klucel (hydroxypropylcellulose) (HPC)
[11] = dose: 400.0 mg/kg/injection, schedule: Q01DX009 (ip), vehicle: Klucel (hydroxypropylcellulose) (HPC)

Measured: T/C

CC1OC(=O)C(C(C)C)NC(=O)C(C(C)C)OC(=O)C(C(C)C)NC(=O)C(C)OC(=O)C(C(C)C)NC(=O)C(C(C)C)OC(=O)C(C(C)C)NC(=O)C(C)OC(=O)C(C(C)C)NC(=O)C(C(C)C)OC(=O)C(C(C)C)NC1=O (stereo unspecified)
inactive: dose: 0.75 mg/kg/injection, schedule: Q01DX009 (oral), vehicle: Klucel (hydroxypropylcellulose) (HPC) 104 % of control | dose: 1.5 mg/kg/injection, schedule: Q01DX009 (oral), vehicle: Klucel (hydroxypropylcellulose) (HPC) 104 % of control | dose: 3.0 mg/kg/injection, schedule: Q01DX009 (oral), vehicle: Klucel (hydroxypropylcellulose) (HPC) 105 % of control | dose: 6.0 mg/kg/injection, schedule: Q01DX009 (oral), vehicle: Klucel (hydroxypropylcellulose) (HPC) 100 % of control | dose: 12.0 mg/kg/injection, schedule: Q01DX009 (oral), vehicle: Klucel (hydroxypropylcellulose) (HPC) 105 % of control | dose: 24.0 mg/kg/injection, schedule: Q01DX009 (oral), vehicle: Klucel (hydroxypropylcellulose) (HPC) 104 % of control

O=C1C2CC(Cl)C(SSC3CC4C(=O)N(SC(Cl)(Cl)C(Cl)Cl)C(=O)C4CC3Cl)CC2C(=O)N1SC(Cl)(Cl)C(Cl)Cl (stereo unspecified)
inactive: [1] 98 % of control | [2] 104 % of control | [3] 98 % of control

O=c1[nH]cccc1O
inactive: dose: 16.0 mg/kg/injection, schedule: Q01DX009 (ip), vehicle: saline with Tween-80 101 % of control | dose: 32.0 mg/kg/injection, schedule: Q01DX009 (ip), vehicle: saline with Tween-80 92 % of control | dose: 64.0 mg/kg/injection, schedule: Q01DX009 (ip), vehicle: saline with Tween-80 93 % of control | dose: 128.0 mg/kg/injection, schedule: Q01DX009 (ip), vehicle: saline with Tween-80 105 % of control | dose: 256.0 mg/kg/injection, schedule: Q01DX009 (ip), vehicle: saline with Tween-80 99 % of control

COc1cccc2c1C(=O)c1c(O)c3c(c(O)c1C2=O)C[C@@](O)(C(C)=O)C[C@@H]3OC1CC(N2CCOCC2)C(O)C(C)O1 (stereo partly specified)
inactive: dose: 0.06 mg/kg/injection, schedule: Q01DX001 (ip), vehicle: water 120 % of control | dose: 0.12 mg/kg/injection, schedule: Q01DX001 (ip), vehicle: water 123 % of control | dose: 62.5 micrograms/kg/injection, schedule: Q01DX001 (ip), vehicle: water 113 % of control | dose: 125.0 micrograms/kg/injection, schedule: Q01DX001 (ip), vehicle: water 122 % of control

CCOc1ccccc1C(=O)Nc1ccc(Br)cc1
inactive: [4] 117 % of control | [5] 117 % of control

O=C1N[C@H]2[C@H](O)[C@H](O)[C@@H](O)[C@H](O)[C@@H]2c2cc3c(c(O)c21)OCO3
inactive: dose: 1.5 mg/kg/injection, schedule: Q01DX009 (ip), vehicle: saline + alcohol 100 % of control | dose: 1.56 mg/kg/injection, schedule: Q01DX009 (ip), vehicle: saline + alcohol 108 % of control | dose: 3.0 mg/kg/injection, schedule: Q01DX009 (ip), vehicle: saline + alcohol 103 % of control | dose: 6.0 mg/kg/injection, schedule: Q01DX009 (ip), vehicle: saline + alcohol 114 % of control | dose: 6.25 mg/kg/injection, schedule: Q01DX009 (ip), vehicle: saline + alcohol 110 % of control

Cn1c(N)c(N=Nc2ccccc2Cl)c(=O)n(C)c1=O
inactive: dose: 6.25 mg/kg/injection, schedule: Q01DX009 (ip), vehicle: saline with Tween-80 92 % of control | [6] 101 % of control | [1] 89 % of control | [2] 92 % of control and 104 % of control | [3] 104 % of control

CC(C)CC1C(=O)N2CCCC2C2(O)OC(NC(=O)C3C=C4c5cccc6[nH]cc(c56)CC4N(C)C3)(C(C)C)C(=O)N12 (stereo unspecified)
inactive: dose: 2.5 mg/kg/injection, schedule: Q01DX009 (ip), vehicle: Klucel (hydroxypropylcellulose) (HPC) 120 % of control | dose: 5.0 mg/kg/injection, schedule: Q01DX009 (ip), vehicle: Klucel (hydroxypropylcellulose) (HPC) 111 % of control | dose: 10.0 mg/kg/injection, schedule: Q01DX009 (ip), vehicle: Klucel (hydroxypropylcellulose) (HPC) 109 % of control | dose: 20.0 mg/kg/injection, schedule: Q01DX009 (ip), vehicle: Klucel (hydroxypropylcellulose) (HPC) 98 % of control | dose: 40.0 mg/kg/injection, schedule: Q01DX009 (ip), vehicle: Klucel (hydroxypropylcellulose) (HPC) 105 % of control

c1ccc2c3c(ccc2c1)Sc1ccc2ccccc2c1N3
inactive: [7] 112 % of control | [8] 112 % of control | [9] 112 % of control | dose: 400.0 mg/kg/injection, schedule: Q01DX009 (ip), vehicle: saline 123 % of control

O=C(NNC(=O)c1cccc(C(=O)NNC(=O)c2ccc(Cl)c(Cl)c2)n1)c1ccc(Cl)c(Cl)c1
inactive: dose: 12.5 mg/kg/injection, schedule: Q01DX009 (ip), vehicle: Klucel (hydroxypropylcellulose) (HPC) 94 % of control and 105 % of control | dose: 25.0 mg/kg/injection, schedule: Q01DX009 (ip), vehicle: Klucel (hydroxypropylcellulose) (HPC) 102 % of control | [4] 91 % of control and 102 % of control | [10] 94 % of control and 103 % of control | [5] 105 % of control

CCCCC(NC(=O)C(C)N)C(=O)O (stereo unspecified)
inactive: [4] 102 % of control | [10] 107 % of control | [5] 96 % of control | [11] 93 % of control

Cc1ccc(NCC2(/N=C/c3ccccc3)OC(CO)C(O)C2O)cc1 (stereo unspecified)
active: [11] 161 % of control

CC(=O)C1=C(O)C2(O)C(=O)c3c(c(C)c4ccc(C)c(O)c4c3O)CC2C(N)C1=O (stereo unspecified)
inactive: dose: 3.75 mg/kg/injection, schedule: Q01DX009 (ip), vehicle: saline + alcohol 109 % of control | dose: 7.3 mg/kg/injection, schedule: Q01DX009 (ip), vehicle: saline + alcohol 120 % of control | dose: 7.5 mg/kg/injection, schedule: Q01DX009 (ip), vehicle: saline + alcohol 114 % of control

O=C(Nc1nncs1)c1ccncc1
inactive: [6] 108 % of control | [1] 102 % of control | [2] 92 % of control

C1CNCOC1
inactive: dose: 6.25 mg/kg/injection, schedule: Q01DX009 (ip), vehicle: saline 112 % of control and 95 % of control | dose: 12.5 mg/kg/injection, schedule: Q01DX009 (ip), vehicle: saline 102 % of control and 104 % of control | dose: 25.0 mg/kg/injection, schedule: Q01DX009 (ip), vehicle: saline 96 % of control and 101 % of control | [7] 96 % of control and 103 % of control | [8] 112 % of control | [9] 105 % of control
